Laboratory results reported in ChEMBL document CHEMBL3351595, “Cyclic acyl guanidines bearing carbamate moieties allow potent and dirigible cholinesterase inhibition of either acetyl- or butyrylcholinesterase” (Bioorg Med Chem, 2014).
The source made the active and inactive calls. No cut-off for these calls is given here.

Tests used:
[1] = target: Cholinesterase (Equus caballus) (UniProt P81908); assay: Inhibition of equine serum BChE assessed as rate constant of carbamoyl-enzyme formation pre-incubated for 80 mins by enzyme kinetic assay
Chain of Cholinesterase (Equus caballus) (P81908 whole entry): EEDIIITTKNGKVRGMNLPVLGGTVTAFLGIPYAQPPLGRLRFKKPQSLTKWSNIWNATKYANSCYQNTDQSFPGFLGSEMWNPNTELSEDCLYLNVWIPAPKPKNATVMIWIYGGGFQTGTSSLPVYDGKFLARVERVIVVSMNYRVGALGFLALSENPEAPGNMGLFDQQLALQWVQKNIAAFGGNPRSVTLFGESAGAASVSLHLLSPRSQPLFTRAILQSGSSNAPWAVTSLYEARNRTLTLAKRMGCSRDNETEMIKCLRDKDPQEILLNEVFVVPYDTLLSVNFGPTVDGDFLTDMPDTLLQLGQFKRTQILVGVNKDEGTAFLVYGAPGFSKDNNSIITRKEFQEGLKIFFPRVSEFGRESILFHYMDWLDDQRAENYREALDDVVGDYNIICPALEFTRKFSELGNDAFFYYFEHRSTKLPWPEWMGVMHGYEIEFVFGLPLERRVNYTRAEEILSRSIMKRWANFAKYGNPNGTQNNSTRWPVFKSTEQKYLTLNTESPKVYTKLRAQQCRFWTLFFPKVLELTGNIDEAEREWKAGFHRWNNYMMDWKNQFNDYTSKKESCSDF

[2] = target: Cholinesterase (Equus caballus) (UniProt P81908); assay: Inhibition of equine serum BChE assessed as rate constant of carbamoyl-enzyme formation pre-incubated for 2 to 20 mins by enzyme kinetic assay
[3] = target: Cholinesterase (Equus caballus) (UniProt P81908); assay: Time dependent inhibition of equine serum BChE at 5 to 100 nM; settings: TDE = time-dependent effect
[4] = Selectivity index, ratio of IC50 for electric eel AChE to IC50 for quine serum BChE
[5] = target: Acetylcholinesterase (Electrophorus electricus, UniProt O42275); assay: Inhibition of electric eel AChE using ATC iodide substrate by DTNB based assay
Chain of Acetylcholinesterase (O42275 whole entry): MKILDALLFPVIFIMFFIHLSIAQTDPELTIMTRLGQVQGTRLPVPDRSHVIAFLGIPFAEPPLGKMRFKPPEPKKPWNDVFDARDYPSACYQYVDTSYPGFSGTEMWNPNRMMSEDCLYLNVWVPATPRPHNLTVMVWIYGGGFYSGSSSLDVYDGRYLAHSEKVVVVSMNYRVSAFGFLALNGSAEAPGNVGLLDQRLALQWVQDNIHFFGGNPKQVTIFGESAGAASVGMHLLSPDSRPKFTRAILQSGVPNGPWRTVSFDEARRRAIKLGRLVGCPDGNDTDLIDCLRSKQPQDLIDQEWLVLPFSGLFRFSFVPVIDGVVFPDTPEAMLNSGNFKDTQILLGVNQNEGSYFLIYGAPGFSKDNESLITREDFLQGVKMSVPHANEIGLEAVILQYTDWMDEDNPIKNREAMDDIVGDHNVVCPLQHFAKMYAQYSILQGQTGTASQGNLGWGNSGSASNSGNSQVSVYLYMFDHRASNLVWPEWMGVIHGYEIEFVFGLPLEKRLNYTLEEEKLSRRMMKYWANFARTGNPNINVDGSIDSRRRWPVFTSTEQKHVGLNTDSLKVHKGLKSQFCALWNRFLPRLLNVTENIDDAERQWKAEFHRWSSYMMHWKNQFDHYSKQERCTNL

[6] = test system: HT-22; assay: Neuroprotective activity in mouse HT22 cells assessed as reduction in glutamate-induced cytotoxicity at 1 to 25 uM by MTT assay; assay type: functional, cell-based
[7] = test system: HT-22; assay: Toxicity against mouse HT22 cells assessed as reduction in cell viability at 1 to 25 uM by MTT assay; assay type: cell-based; settings: ht-22, 25 µM
[8] = target: Cholinesterase (Equus caballus, UniProt P81908); assay: Inhibition of equine serum BChE using ATC iodide substrate by DTNB based assay
Chain of Cholinesterase (P81908 whole entry): as the sequence (P81908 whole entry) above

[9] = target: Cholinesterase (Equus caballus) (UniProt P81908); assay: Inhibition of equine serum BChE assessed as stability constant of inhibitor-enzyme complex pre-incubated for 2 to 20 mins by enzyme kinetic assay
[10] = test system: HT-22; assay: Toxicity against mouse HT22 cells assessed as reduction in cell viability at 25 uM by MTT assay; assay type: cell-based; settings: ht-22, 25 µM
[11] = target: Cholinesterase (Equus caballus) (UniProt P81908); assay: Inhibition of equine serum BChE at 100 uM using ATC iodide substrate by DTNB based assay
[12] = target: Acetylcholinesterase (Electrophorus electricus) (UniProt O42275); assay: Inhibition of electric eel AChE at 50 uM using ATC iodide substrate by DTNB based assay
Chain of Acetylcholinesterase (Electrophorus electricus) (O42275 24-633 limits assumed): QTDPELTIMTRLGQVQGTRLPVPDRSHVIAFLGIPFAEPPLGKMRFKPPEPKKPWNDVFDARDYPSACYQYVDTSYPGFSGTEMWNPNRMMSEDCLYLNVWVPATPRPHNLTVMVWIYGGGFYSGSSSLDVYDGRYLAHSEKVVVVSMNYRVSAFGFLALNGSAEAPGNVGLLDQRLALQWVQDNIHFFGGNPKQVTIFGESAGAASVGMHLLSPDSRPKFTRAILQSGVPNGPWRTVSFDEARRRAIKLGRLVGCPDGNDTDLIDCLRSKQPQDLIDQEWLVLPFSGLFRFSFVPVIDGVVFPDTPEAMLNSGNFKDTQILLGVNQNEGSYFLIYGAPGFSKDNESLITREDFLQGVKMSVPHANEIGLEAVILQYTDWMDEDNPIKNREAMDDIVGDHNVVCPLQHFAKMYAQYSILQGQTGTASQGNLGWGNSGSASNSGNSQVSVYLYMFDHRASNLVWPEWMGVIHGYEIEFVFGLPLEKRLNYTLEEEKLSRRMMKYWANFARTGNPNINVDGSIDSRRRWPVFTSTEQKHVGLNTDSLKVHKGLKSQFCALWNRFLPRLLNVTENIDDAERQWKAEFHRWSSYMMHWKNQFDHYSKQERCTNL

[13] = target: Cholinesterase (Equus caballus) (UniProt P81908); assay: Inhibition of equine serum BChE at 50 uM using ATC iodide substrate by DTNB based assay
[14] = test system: HT-22; assay: Neuroprotective activity in mouse HT22 cells assessed as reduction in glutamate-induced cytotoxicity at 10 to 25 uM by MTT assay; assay type: functional, cell-based
[15] = target: Acetylcholinesterase (Electrophorus electricus) (UniProt O42275); assay: Inhibition of electric eel AChE at 100 uM using ATC iodide substrate by DTNB based assay
[16] = Antioxidant activity assessed as AAPH-induced peroxyl radicals scavenging activity by measuring Trolox equivalents by oxygen radical absorbance capacity-fluorescein assay; assay type: physicochemical
[17] = test system: HT-22; assay: Neuroprotective activity in mouse HT22 cells assessed as reduction in glutamate-induced cytotoxicity at 25 uM by MTT assay; assay type: functional, cell-based
[18] = test system: HT-22; assay: Toxicity against mouse HT22 cells assessed as reduction in cell viability at 5 uM by MTT assay; assay type: cell-based; settings: ht-22, 5 µM
[19] = target: Cholinesterase (Equus caballus) (UniProt P81908); assay: Time dependent inhibition of equine serum BChE at 25 to 250 nM; settings: TDE = time-dependent effect
[20] = target: Acetylcholinesterase (Electrophorus electricus) (UniProt O42275); assay: Inhibition of electric eel AChE assessed as rate constant of carbamoyl-enzyme formation pre-incubated for 2 to 20 mins by enzyme kinetic assay
[21] = target: Acetylcholinesterase (Homo sapiens) (UniProt P22303); assay: Inhibition of human erythrocyte AChE pre-incubated for 2 mins by enzyme kinetic assay
Chain of Acetylcholinesterase (Homo sapiens) (P22303 whole entry): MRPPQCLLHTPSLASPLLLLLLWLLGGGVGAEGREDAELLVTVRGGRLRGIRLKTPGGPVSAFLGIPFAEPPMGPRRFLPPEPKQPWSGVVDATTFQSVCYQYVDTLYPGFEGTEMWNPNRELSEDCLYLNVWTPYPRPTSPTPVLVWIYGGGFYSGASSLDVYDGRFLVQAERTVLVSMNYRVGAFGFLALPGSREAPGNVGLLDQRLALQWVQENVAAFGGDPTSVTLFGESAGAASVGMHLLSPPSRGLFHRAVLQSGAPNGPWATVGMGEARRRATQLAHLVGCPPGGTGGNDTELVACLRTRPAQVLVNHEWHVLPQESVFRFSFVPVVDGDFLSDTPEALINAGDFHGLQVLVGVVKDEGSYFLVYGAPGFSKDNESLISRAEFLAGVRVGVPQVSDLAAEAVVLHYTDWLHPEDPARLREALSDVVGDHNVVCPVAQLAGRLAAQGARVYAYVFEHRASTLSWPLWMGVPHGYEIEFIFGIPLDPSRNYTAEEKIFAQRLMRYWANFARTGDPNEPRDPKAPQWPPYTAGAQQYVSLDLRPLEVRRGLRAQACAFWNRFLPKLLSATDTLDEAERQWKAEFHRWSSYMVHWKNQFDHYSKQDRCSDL

[22] = target: Acetylcholinesterase (Homo sapiens) (UniProt P22303); assay: Inhibition of human erythrocyte AChE pre-incubated for 20 mins by enzyme kinetic assay
[23] = target: Acetylcholinesterase (Electrophorus electricus) (UniProt O42275); assay: Inhibition of electric eel AChE assessed as stability constant of inhibitor-enzyme complex pre-incubated for 2 to 20 mins by enzyme kinetic assay
[24] = test system: HT-22; assay: Neuroprotective activity in mouse HT22 cells assessed as reduction in glutamate-induced cytotoxicity at 5 to 25 uM by MTT assay; assay type: functional, cell-based

SMILES	Ratio IC50 [4]	IC50 ([5]; read-out: IC50) [µM]	IC50 ([8]; read-out: IC50) [µM]	other results
CCCCCCCNC(=O)Oc1ccc2nc3n(c(=O)c2c1)CCCN3CCCN1CCCCC1	322	7.95	0.0247	inhibition [1]: inactive; K [2]: 0.125 min⁻¹; inhibition [3]: tde; Activity [6]: inactive; Activity [7]: Non-toxic; K [9]: 1.3 nM
CCCCCCCNC(=O)Oc1ccc2nc3n(c(=O)c2c1)CCCN3Cc1ccccc1	3.51	88.8	25.3	
O=c1c2cc(O)ccc2nc2n1CCCN2	0.28	55.6		Activity [10]: Toxic; IC50 ([5]; read-out: pIC50 (converted)): 55 µM; Activity [6]: inactive; inhibition [11]: 24%
COc1cccc(NC(=O)Oc2ccc3nc4n(c(=O)c3c2)CCCN4Cc2ccccc2)c1				inhibition [12]: 35%; inhibition [13]: 11%
CN1C2=NCCCN2C(=O)c2cc(O)ccc21	0.21	11.8	55.5	Activity [6]: inactive; Activity [7]: Non-toxic; Activity [14]: inactive
CN1CCCn2c1nc1ccc(OCc3ccccc3)cc1c2=O	0.21	15.6	81.7	
CC(C)c1ccc(NC(=O)Oc2ccc3nc4n(c(=O)c3c2)CCCN4Cc2ccccc2)cc1				inhibition [12]: 30%; inhibition [13]: 6%
O=c1c2cc(OCc3ccccc3)ccc2nc2n1CCCN2Cc1ccccc1				inhibition [15]: 20%; inhibition [11]: 10%
CN1CCCN2Cc3cc(O)ccc3N=C12	< 0.3	15.9		Activity [6]: inactive; Activity [7]: Non-toxic; inhibition [13]: 53%; Activity [16]: 1.34 equiv; Activity [17]: Active; Activity [14]: inactive
COc1cccc(NC(=O)Oc2ccc3nc4n(c(=O)c3c2)CCCN4C)c1	0.33	5.46	12.6	
CC(C)c1ccc(NC(=O)Oc2ccc3nc4n(c(=O)c3c2)CCCN4CCCN2CCCCC2)cc1	3.1	0.78	0.25	
CN1CCCn2c1nc1ccc(O)cc1c2=O				inhibition [12]: 61%; Activity [7]: Non-toxic; inhibition [13]: 9%; Activity [16]: 1.54 equiv; Activity [14]: Active
CCCCCCCNC(=O)Oc1ccc2nc3n(c(=O)c2c1)CCCN3C	3.41	5.98	1.75	
CCCCNC(=O)Oc1ccc2nc3n(c(=O)c2c1)CCCN3C	0.37	16.3	44.3	
CN1C2=NCCCN2C(=O)c2cc(OC(=O)Nc3ccc(C(C)(C)C)cc3)ccc21	< 0.004	0.2		
O=C1c2ccccc2NC2=NCCCN12	0.3	29.6		Activity [6]: inactive; Activity [18]: Toxic; inhibition [11]: 47%
CCCCCCCNC(=O)Oc1ccc2c(c1)CN1CCCN(C)C1=N2	5.31	3.36	0.63	

SMILES	Ratio IC50 [4]	IC50 ([5]; read-out: IC50) [µM]	IC50 ([8]; read-out: IC50) [µM]	other results
O=c1c2cc(OCc3ccccc3)ccc2nc2n1CCCN2	0.19	19.3		IC50 ([5]; read-out: pIC50 (converted)): 19.1 µM; inhibition [13]: 20%
O=c1c2cc(OCc3ccccc3)ccc2nc2n1CCCN2CCCN1CCCCC1	1.6	1.31	0.81	IC50 ([5]; read-out: pIC50 (converted)): 1.35 µM
CCCCNC(=O)Oc1ccc2c(c1)CN1CCCN(C)C1=N2	2.31	3.13	1.34	IC50 ([8]; read-out: pIC50 (converted)): 3.89 µM
COc1cccc(NC(=O)Oc2ccc3nc4n(c(=O)c3c2)CCCN4CCCN2CCCCC2)c1	16.2	7.3	0.45	IC50 ([8]; read-out: pIC50 (converted)): 25.7 µM
CN1CCCN2Cc3cc(OCc4ccccc4)ccc3N=C12	0.2	0.826	4.17	
CCCCNC(=O)Oc1ccc2nc3n(c(=O)c2c1)CCCN3Cc1ccccc1				inhibition [12]: 41%; inhibition [13]: 8%
CC(C)c1ccc(NC(=O)Oc2ccc3nc4n(c(=O)c3c2)CCCN4C)cc1	> 5.6		17.7	inhibition [15]: 50%
O=c1c2cc(O)ccc2nc2n1CCCN2CCCN1CCCCC1	1	22.9	22.7	Activity [14]: inactive
CC(C)c1ccc(NC(=O)Oc2ccc3c(c2)C(=O)N2CCCN=C2N3C)cc1	0.03	0.0837	3.26	inhibition [1]: inactive; inhibition [19]: tde; Activity [6]: inactive; K [20]: 0.09 min⁻¹; Activity [7]: Non-toxic; inhibition [21]: Active; inhibition [22]: inactive; K [23]: 43.5 nM
CC(C)c1ccc(NC(=O)Oc2ccc3nc4n(c(=O)c3c2)CCCN4)cc1	0.5			inhibition [12]: 34%; inhibition [13]: 19%
CNC(=O)Oc1ccc2c(c1)[C@]1(C)CCN(C)[C@@H]1N2C				K [2]: 0.067 min⁻¹; K [20]: 0.123 min⁻¹; K [23]: 34.3 nM; K [9]: 41.1 nM
CCCCNC(=O)Oc1ccc2c(c1)C(=O)N1CCCN=C1N2C	0.09	3.84	43.9	
CCCCNC(=O)Oc1ccc2nc3n(c(=O)c2c1)CCCN3CCCN1CCCCC1	6.35	6.91	1.1	
COc1cccc(NC(=O)Oc2ccc3c(c2)C(=O)N2CCCN=C2N3C)c1	0.06	2.9	52.2	
CN1C2=NCCCN2C(=O)c2cc(OCc3ccccc3)ccc21	0.03	0.7	21.4	
CCCCCCCNC(=O)Oc1ccc2c(c1)C(=O)N1CCCN=C1N2C	26.1	3.64	0.14	
O=c1c2cc(O)ccc2nc2n1CCCN2Cc1ccccc1				Activity [10]: Toxic; Activity [24]: Active; inhibition [12]: 41%; Activity [7]: Non-toxic; inhibition [13]: 40%; Activity [16]: 1.56 equiv
